From patent publication US9480418B2, “Systems and methods for the screening and monitoring of inner ear function” (The United States Government as represented by the …, priority 2012, dated 2016)

Test system: hearing in the SRO frequencies
Assay: Validation study: SRO hearing monitoring with OtoID in subjects receiving cisplatin
Type: in vivo, human
Conditions: 9 ears of 24 monitored; Validation sample
Excerpt: Validation Study, Sample Subjects. […] Subjects were prescreened using the electronic medical records for exclusionary criteria and to obtain treatment information. The subjects enrolled in the Validation study were part of a larger project to develop and evaluate a portable hearing testing device capable of measuring extended high frequency hearing. Except for the following two study-related differences, the same exclusionary criteria were used to recruit both groups of subjects (those participating in the Developmental or Validation studies). First, there was no exclusion for extent of hearing threshold loss in the Validation study sample. Second, subjects from the Validation study were tested on the chemotherapy unit or at bedside in the case of inpatients. There was no overlap of subjects in these two samples.
Validation Study; Equipment and Measurements. […] This device, the OtoID, was evaluated in an independent study for its ability to optimize the sensitivity, efficiency, and cost-effectiveness of ototoxicity early identification practices. […]
Sennheiser HDA 200 earphones were used with the OtoID to reduce the detrimental effects of environmental noise. […] The seven frequencies constituting each subject's individualized behavioral SRO were evaluated at each treatment interval. […] Subjects were also evaluated immediately following cessation of treatment and at 1 mo post-cessation of treatment. […]

Compound: N.N.[Cl][Pt][Cl] [cisplatin]
- ears in which hearing loss occurred: 38%
